Results published in publication PMC9635468, “Biological evaluation, docking studies, and in silico ADME prediction of some pyrimidine and pyridine derivatives as potential EGFR^WT and EGFR^T790M inhibitors” (Journal of Enzyme Inhibition and Medicinal Chemistry, 2022).
Values after ≈ are worked out from the molar mass of the structure shown.

How the values were obtained:
[1] = system: VERO; assay: Cytotoxicity screening, SRB assay, normal Vero cells; format: cell-based; settings: 48 h, normal cell line; for IC50: Chlorocebus sabaeus, Vero
Description: (§1) In this study, a panel of cell lines was examined for their chemosensitivity. Different concentrations of the synthesised pyridines and pyrimidine derivatives were used in this study (5, 12.5, 25, and 50 µg/mL) for all the examined cell lines. In this study, breast tumour cell line (MCF7), hepatocellular carcinoma cell line (HEPG2), larynx cell line (HEP2), lung cancer cell line (H460), colon cancer cell line (HCT116 and Caco2), hypopharyngeal cell line (FADU), and normal Vero cell line were applied. The full methodology is described in the Supplementary data (SI 1).
(§2) SI 1: Cytotoxicity screening against human cancer cell lines
(§3) In this study, a panel of cell lines was examined for their chemosensitivity. Different concentrations of the synthesized pyridines and pyrimidines derivatives were used in this study (5, 12.5, 25, and 50 µg/ml) for all the examined cell lines. The most sensitive cell line to the treatment regimen was selected and subjected to further investigations to explore the mechanism of this interaction. Human breast tumor cell line (MCF7), human hepatocellular carcinoma cell line (HEPG2), human larynx cell line (HEP2), human lung cancer cell line (H460), human colon cancer cell line (HCT116 and Caco2), human hypopharyngeal cell line (FaDu), and normal cell line Vero were used in this study. It was obtained from the American Type Culture Collection (ATCC, Minnesota, USA). The tumor cell line was maintained at National Cancer Institute (NCI), Cairo, Egypt.
(§4) The antitumor activities of pyridines and pyrimidines derivatives and all tested cell lines were evaluated by sulphorhodamine-B (SRB) assay 1. Briefly, cells were seeded at a density of 3 × 10^3 cells/well in 96-well microtiter plates. They were left to attach for 24 h before incubation with drugs. Next, cells were treated with different concentrations of 5, 12.5, 25, and 50 µg/ml for MCF7, HEPG2, HEP2, HCT116, Caco2, H460, FaDu, and Vero cells. For each concentration, three wells were used and incubation was continued for 48 h. DMSO was used as a control vehicle (1 % v/v). At the end of incubation, cells were fixed with 20 % trichloroacetic acid and stained with 0.4 % SRB dye. The optical density (O.D.) of each well was measured spectrophotometrically at 570 nm using an ELISA microplate reader (TECAN sunrise™, Germany). The mean survival fraction at each drug concentration was calculated as follows: […]
(§5) O.D. of the treated cells/O.D. of the control cells. The IC50 (concentration that produces 50% of cell growth inhibition) value of each drug was calculated using sigmoidal dose-response curve-fitting models (Graph Pad Prizm software, version 5) 1.

[2] = system: HEPG2; assay: Cytotoxicity screening, SRB assay, HEPG2; format: cell-based, human; settings: for IC50: Homo sapiens, HepG2, 48 h
Description: as §1, §2, §3, §4, §5

[3] = system: H460; assay: Cytotoxicity screening, SRB assay, H460; format: cell-based, human; settings: for IC50: Homo sapiens, NCI-H460, 48 h
Description: as §1, §2, §3, §4, §5

[4] = system: FADU; assay: Cytotoxicity screening, SRB assay, FADU; format: cell-based, human; settings: 48 h; for IC50: Homo sapiens, FaDu
Description: as §1, §2, §3, §4, §5

[5] = system: HEP2; assay: Cytotoxicity screening, SRB assay, HEP2; format: cell-based, human; settings: for IC50: Homo sapiens, HEp-2, 48 h
Description: as §1, §2, §3, §4, §5

[6] = system: HCT116; assay: Cytotoxicity screening, SRB assay, HCT116; format: cell-based, human; settings: for IC50: Homo sapiens, HCT-116, 48 h
Description: as §1, §2, §3, §4, §5

[7] = system: MCF7; assay: Cytotoxicity screening, SRB assay, MCF7; format: cell-based, human; settings: for IC50: Homo sapiens, MCF7, 48 h
Description: as §1, §2, §3, §4, §5

[8] = system: CaCo2; assay: Cytotoxicity screening, SRB assay, CaCo2; format: cell-based, human; settings: for IC50: Homo sapiens, Caco-2, 48 h
Description: as §1, §2, §3, §4, §5

[9] = system: T47D; assay: Cytotoxicity screening, SRB assay, T47D; format: cell-based, human; settings: 48 h; for IC50: Homo sapiens, T47D
[10] = system: PI3Kd; parameters: method as in PMID 29631787; settings: inhibitory potential against PI3Kd; cited from earlier work
[11] = system: NF-kB; parameters: method as in PMID 25108361; settings: inhibitory potential against NF-kB; cited from earlier work

## N#Cc1c(-c2cccs2)cc(-c2ccco2)nc1OCC(=O)N/N=C/c1ccc([N+](=O)[O-])cc1 [Compound 20]
[1]
  IC50: 10.5 µg/mL (≈ 22.2 µM)
[2]
  IC50: 11.5 µg/mL (≈ 24.3 µM)
[3]
  IC50: 11.3 µg/mL (≈ 23.9 µM)
[4]
  IC50: 8.5 µg/mL (≈ 18 µM)
[5]
  IC50: 31 µg/mL (≈ 65.5 µM)
[6]
  IC50: 24.7 µg/mL (≈ 52.2 µM)
[7]
  IC50: 12.2 µg/mL (≈ 25.8 µM)
[8]
  IC50: 41.5 µg/mL (≈ 87.7 µM)
[9]
  IC50: 49.5 µg/mL (≈ 105 µM)

## Nc1nn2c(-c3cccs3)cc(-c3ccco3)nc2c1/N=N/c1ccc([N+](=O)[O-])cc1 [Compound 7]
[1]
  IC50: 12 µg/mL (≈ 27.8 µM)
[2]
  IC50: 12 µg/mL (≈ 27.8 µM)
[3]
  IC50: 3.7 µg/mL (≈ 8.58 µM)
[4]
  IC50: 8.3 µg/mL (≈ 19.2 µM)
[5]
  IC50: 35.2 µg/mL (≈ 81.6 µM)
[6]
  IC50: 15 µg/mL (≈ 34.8 µM)
[7]
  IC50: 13.7 µg/mL (≈ 31.8 µM)
[8]
  IC50: 21.5 µg/mL (≈ 49.8 µM)
[9]
  IC50: 44.5 µg/mL (≈ 103 µM)

## COc1ncc(-c2cc(O[C@@H]3CCN(C(=O)C4CCOCC4)C3)c3cnn(C)c3n2)cc1NS(C)(=O)=O [Compound II]
[10]
  IC50: 0.0053 µM

## Cc1cnc2[nH]nc(N)c2c1-c1ccccc1 [Compound VI]
[11]
  IC50: 39.8 µM

## C1=C(c2ccco2)n2c(nc3ccccc32)SC1c1cccs1 (centres unmarked) [Compound 11]
[1]
  IC50: 24 µg/mL (≈ 71.3 µM)
[2]
  IC50: 18.5 µg/mL (≈ 55 µM)
[3]
  IC50: 4.3 µg/mL (≈ 12.8 µM)
[4]
  IC50: 18.2 µg/mL (≈ 54.1 µM)
[5]
  IC50: 19.5 µg/mL (≈ 58 µM)
[6]
  IC50: 42 µg/mL (≈ 125 µM)
[7]
  IC50: 15.9 µg/mL (≈ 47.3 µM)
[8]
  IC50: 24.8 µg/mL (≈ 73.7 µM)
[9]
  IC50: 19.5 µg/mL (≈ 58 µM)

## CCOC(=O)COc1nc(-c2ccco2)cc(-c2cccs2)c1C#N [Compound 18]
[1]
  IC50: 24.5 µg/mL (≈ 69.1 µM)
[2]
  IC50: 9 µg/mL (≈ 25.4 µM)
[3]
  IC50: 25 µg/mL (≈ 70.5 µM)
[4]
  IC50: 22 µg/mL (≈ 62.1 µM)
[5]
  IC50: 23 µg/mL (≈ 64.9 µM)
[6]
  IC50: 36.7 µg/mL (≈ 104 µM)
[7]
  IC50: 21.5 µg/mL (≈ 60.7 µM)
[8]
  IC50: 23.5 µg/mL (≈ 66.3 µM)
[9]
  IC50: 25.5 µg/mL (≈ 72 µM)

## N#Cc1c(-c2cccs2)cc(-c2ccco2)nc1NN [Compound 17]
[1]
  IC50: 16.5 µg/mL (≈ 58.4 µM)
[2]
  IC50: 4.9 µg/mL (≈ 17.4 µM)
[3]
  IC50: 12.7 µg/mL (≈ 45 µM)
[4]
  IC50: 10.5 µg/mL (≈ 37.2 µM)
[5]
  IC50: 24 µg/mL (≈ 85 µM)
[6]
  IC50: 19.3 µg/mL (≈ 68.4 µM)
[7]
  IC50: 34 µg/mL (≈ 120 µM)
[8]
  IC50: 24 µg/mL (≈ 85 µM)
[9]
  IC50: 4.9 µg/mL (≈ 17.4 µM)

## Nc1n[nH]c2ncc3c(c12)-c1ccccc1CC3 [Compound V]
[11]
  IC50: 6.9 µM

## N#Cc1c(-c2cccs2)cc(-c2ccco2)nc1-c1c[nH]c2ccccc12 [Compound 13]
[2]
  IC50: 8.6 µg/mL (≈ 23.4 µM)
[4]
  IC50: 15.9 µg/mL (≈ 43.3 µM)
[5]
  IC50: 4.8 µg/mL (≈ 13.1 µM)
[6]
  IC50: 44.3 µg/mL (≈ 121 µM)
[7]
  IC50: 7.8 µg/mL (≈ 21.2 µM)
[9]
  IC50: 21 µg/mL (≈ 57.2 µM)

## Clc1nc(-c2ccco2)cc(-c2cccs2)c1-c1nnn[nH]1 [Compound 16]
[1]
  IC50: 4.5 µg/mL (≈ 13.6 µM)
[2]
  IC50: 9.7 µg/mL (≈ 29.4 µM)
[3]
  IC50: 19.4 µg/mL (≈ 58.8 µM)
[4]
  IC50: 9 µg/mL (≈ 27.3 µM)
[5]
  IC50: 31 µg/mL (≈ 94 µM)
[6]
  IC50: 27 µg/mL (≈ 81.9 µM)
[7]
  IC50: 21 µg/mL (≈ 63.7 µM)
[8]
  IC50: 18.2 µg/mL (≈ 55.2 µM)
[9]
  IC50: 8.9 µg/mL (≈ 27 µM)

## COc1cccc2c1C(=O)c1c(O)c3c(c(O)c1C2=O)C[C@@](O)(C(=O)CO)C[C@@H]3O[C@H]1C[C@H](N)[C@H](O)[C@H](C)O1 [DOX, reference compound]
[1]
  VERO IC50: 23.00 µg/mL
[2]; 48 h
  HEPG2 IC50: 4.58 µg/mL
[3]; 48 h
  H460 IC50: 6.50 µg/mL
[4]
  FADU IC50: 7.00 µg/mL
[5]; 48 h
  HEP2 IC50: 5.60 µg/mL
[6]; 48 h
  HCT116 IC50: 5.50 µg/mL
[7]; 48 h
  MCF7 IC50: 4.50 µg/mL
[8]; 48 h
  CaCo2 IC50: 6.00 µg/mL
[9]
  T47D IC50: 4.00 µg/mL

## CC1Cc2cnc3[nH]nc(N)c3c2-c2ccccc21 (centres unmarked) [Compound IV]
[11]
  IC50: 4.7 µM

## N#Cc1c(-c2cccs2)cc(-c2ccco2)nc1OCC(=O)NN [Compound 19]
[1]
  IC50: 36 µg/mL (≈ 106 µM)
[2]
  IC50: 24.2 µg/mL (≈ 71.1 µM)
[3]
  IC50: 41.5 µg/mL (≈ 122 µM)
[4]
  IC50: 20.5 µg/mL (≈ 60.2 µM)
[5]
  IC50: 43.5 µg/mL (≈ 128 µM)
[7]
  IC50: 39.5 µg/mL (≈ 116 µM)
[8]
  IC50: 10.8 µg/mL (≈ 31.7 µM)
[9]
  IC50: 32 µg/mL (≈ 94 µM)

## N#Cc1c(-c2cccs2)cc(-c2ccco2)nc1Cl [Compound 15]
[1]
  IC50: 21.5 µg/mL (≈ 75 µM)
[2]
  IC50: 12 µg/mL (≈ 41.8 µM)
[3]
  IC50: 21 µg/mL (≈ 73.2 µM)
[4]
  IC50: 17.5 µg/mL (≈ 61 µM)
[5]
  IC50: 36.8 µg/mL (≈ 128 µM)
[6]
  IC50: 22 µg/mL (≈ 76.7 µM)
[7]
  IC50: 14.7 µg/mL (≈ 51.3 µM)
[8]
  IC50: 23.5 µg/mL (≈ 82 µM)
[9]
  IC50: 49.4 µg/mL (≈ 172 µM)

## c1coc(-c2cc(-c3cccs3)n3nnnc3n2)c1 [Compound 10]
[1]
  IC50: 28.5 µg/mL (≈ 106 µM)
[2]
  IC50: 7.3 µg/mL (≈ 27.1 µM)
[3]
  IC50: 2.9 µg/mL (≈ 10.8 µM)
[4]
  IC50: 4.5 µg/mL (≈ 16.7 µM)
[5]
  IC50: 22.8 µg/mL (≈ 84.7 µM)
[6]
  IC50: 33.3 µg/mL (≈ 124 µM)
[7]
  IC50: 18.7 µg/mL (≈ 69.4 µM)
[9]
  IC50: 18.2 µg/mL (≈ 67.6 µM)

## c1coc(-c2cc(-c3cccs3)n3cnnc3n2)c1 [Compound 9]
[1]
  IC50: 32.5 µg/mL (≈ 121 µM)
[2]
  IC50: 18.5 µg/mL (≈ 69 µM)
[3]
  IC50: 43.2 µg/mL (≈ 161 µM)
[4]
  IC50: 19.6 µg/mL (≈ 73.1 µM)
[5]
  IC50: 14.7 µg/mL (≈ 54.8 µM)
[6]
  IC50: 24.3 µg/mL (≈ 90.6 µM)
[7]
  IC50: 17.2 µg/mL (≈ 64.1 µM)
[8]
  IC50: 23.5 µg/mL (≈ 87.6 µM)
[9]
  IC50: 11.5 µg/mL (≈ 42.9 µM)

## N#Cc1c(-c2cccs2)cc(-c2ccco2)nc1OCC(=O)N/N=C1/C(=O)Nc2ccccc21 [Compound 21]
[1]
  IC50: 38.2 µg/mL (≈ 81.4 µM)
[2]
  IC50: 5 µg/mL (≈ 10.7 µM)
[3]
  IC50: 23.3 µg/mL (≈ 49.6 µM)
[4]
  IC50: 10.9 µg/mL (≈ 23.2 µM)
[5]
  IC50: 19.8 µg/mL (≈ 42.2 µM)
[7]
  IC50: 9.5 µg/mL (≈ 20.2 µM)
[8]
  IC50: 34 µg/mL (≈ 72.4 µM)
[9]
  IC50: 17 µg/mL (≈ 36.2 µM)

## COc1ncc(-c2cc(NC(=O)c3coc(CN4CCN(C(C)C)CC4)n3)c3cnn(C)c3n2)cc1NS(C)(=O)=O [Compound I]
[10]
  IC50: 0.0084 µM
